The test system of the assay is A549 non-small cell lung tumors. The experiment in a line: A549 xenograft 20-day tumor growth inhibition assay. The class given is in vivo, nude mice. The procedure:
A549 human non-small cell lung cancer (NSCLC) cells are treated with different doses of the 2-Methyl-2-[4-(3-methyl-2-oxo-8-quinolin-3-yl-2,3-dihydro-imidazo[4, 5-c]quinolin-1-yl)-phenyl]-propionitrile monotosylate salt (also known as COMPOUND A) or 5-(2,6-di-morpholin-4-yl-pyrimidin-4-yl)-4-trifluoromethyl-pyridin-2-ylamine hydrochloride salt (also known as COMPOUND C), a single dose of metformin or both agents in combination. The A549 human NSCLC cells (ATCC-CCL-185, available from American Type Culture Collection, Rockville, Md. US) display characteristics of type II alveolar epithelial cells (Lieber et al, Int, J, Cancer 17(1): 62-70 [1976]), The A549 NSCLC cells are homozygous for mutations in the tumor suppressor genes, CDKN2A and STK11 (also called LKB1), and in KRAS. (Wellcome Trust Sanger Institute, Catalogue of Somatic Mutations in Cancer, Cosmic ID No, 905949, available at website http://www.sanger.ac.uk/peri/genetics/CGP/core_line_viewer?action=sample&name=A549.)
A549 tumor cells are grown in Kaighn's modified Ham's F12 medium containing 100 units/mL penicillin G sodium, 100 μg/mL streptomycin sulfate, 25 μg/mL gentamicin, […], 2 mM glutamine, and 1 mM sodium pyruvate. The cells are cultured in tissue culture flasks in a humidified incubator at 37° C., in an atmosphere of 5% CO2 and 95% air. The cells are harvested for injection into 9-week old female nu/nu (nude) mice (Harlan Laboratories, Indianapolis, Ind.) by detaching the monolayers with 2X trypsin and resuspending at 5×10^7cells/mL in cold phosphate-buffered saline containing 50% Matrigel.
0.2 mL of A549 cell suspension (1×10^7 cells) is injected subcutaneously in the right flank of 9-week old female flu/flu (nude) mice (Harlan Laboratories, Indianapolis, Ind.) having a body weight (BW) range of 19.9-27.3 g on Day 1 of the study, Tumors are callipered in two dimensions to monitor their growth as their mean volume approached 150-220 mm^3, Twenty-two days after implantation, the mice are sorted into 11 groups of eight or nine mice having individual tumor sizes of 108-221 mm^3. Tumor volume in mm^3 is determined using the formula [(width)^2×(length)][…], where width width of the tumor in mm and length=length of the tumor in mm. Tumor weight can be estimated with the assumption that 1 mg is equivalent to 1 mm^3 of tumor volume.
The 11 groups of nude mice are treated as follows. One group of nine mice serves as Controls (C or Control) for all analyses and is administered intraperitoneally (i,p,) 50 mM sodium acetate at pH 4 (Vehicle 1) and then administered by oral gavage (p.o.) a composition comprising 10% N-methylpyrrolidone: 90% polyethylene glycol 300 (PEG300) (Vehicle 2). […] Metformin is dissolved in 50 mM sodium acetate at pH 4 for dosing,
Compound A and Compound C are stored at −20° C. protected from light. Stock solutions (10X) in 100% N-methylpyrrolidone (NMP) are prepared every five days, aliquotted, and stored in the dark at room temperature. On each treatment day, stock solution aliquots are diluted with polyethylene glycol (PEG300) to provide the formulated drug (Compound A or Compound C) in 10% NMP: 90% PEG300. Dosing solutions are protected from light, and the formulated drug is administered within 1 hour after preparation.
For combination therapies, Compound A or Compound C are administered by oral gavage (p.o.) within 30 minutes after the intraperitoneal (i.p.) administration of metformin , except on Day 20 when Compound A or Compound C is given immediately after metformin.
Paclitaxel (Natural Pharmaceuticals, Inc., Beverly, Mass., USA) is administered by bolus tail-vein injections (i v) once daily on alternate days for five doses. Paclitaxel is dissolved in 50% ethanol and 50% Cremophor® EL to prepare a 10X stock solution stored at room temperature. On each day of dosing, an aliquot of the paclitaxel stock solution is diluted with 5% dextrose in water to yield a dosing solution containing 5% ethanol and 5% Cremophor®EL.

The mark [1] stands for this setting: Compound A 41.1 mg/kg p.o., 1x daily, Day 20.
[2] abbreviates: Compound A 68.5 mg/kg p.o., 1x daily, Day 20.
The mark [3] stands for this setting: Compound C 32.7 mg/kg p.o., 1x daily, Day 20.
The mark [4] stands for this setting: Compound C 54.4 mg/kg p.o., 1x daily, Day 20.
Where [5] appears, read: Paclitaxel 30 mg/kg i.v., 1x on alternate days for 5 doses, Day 20.
Setting [6] is: Metformin 192.3 mg/kg i.p., 1x daily, Day 20.

As usually defined, the T/C is the result in the treated group divided by that in the control group, in per cent. `Cn1c(=O)n(-c2ccc(C(C)(C)C#N)cc2)c2c3cc(-c4cnc5ccccc5c4)ccc3ncc21` [Compound A, 2-Methyl-2-[4-(3-methyl-2-oxo-8-quinolin-3-yl-2,3-dihydro-imidazo[4,5-c]quinolin-1-yl)-phenyl]-propionitrile]: under setting [1], the “Mean Tumor Vol. Change” value stood at 58 mm^3, the Regression entry is recorded as “None” and the T/C is 18% (ns). Moreover, under setting [2], the “Mean Tumor Vol. Change” value is −51 mm^3, the Regression was 3 Partial and the T/T0 is given as −31% (T/T0,.

Turning to `Nc1cc(C(F)(F)F)c(-c2cc(N3CCOCC3)nc(N3CCOCC3)n2)cn1` [Compound C, 5-(2,6-di-morpholin-4-yl-pyrimidin-4-yl)-4-trifluoromethyl-pyridin-2-ylamine], under setting [3], the “Mean Tumor Vol. Change” value was 63 mm^3, the Regression result is listed as “None” and the T/C is listed as 20% (ns). Under setting [4], the “Mean Tumor Vol. Change” value is recorded as −80 mm^3, the Regression entry is on record as “None” and the T/T0 was −48% (T/T0,.

Consider `CC(=O)O[C@H]1C(=O)[C@@]2(C)[C@H]([C@H](OC(=O)c3ccccc3)[C@]3(O)C[C@H](OC(=O)[C@H](O)[C@@H](NC(=O)c4ccccc4)c4ccccc4)C(C)=C1C3(C)C)[C@]1(OC(C)=O)CO[C@@H]1C[C@@H]2O` [Paclitaxel, reference compound], for which, under setting [5], the “Mean Tumor Vol. Change” value came to 9 mm^3, the Regression result is “None” and the T/C stood at 3%.

Regarding `CN(C)C(=N)N=C(N)N` [Metformin, dimethyldiguanide, reference compound], under setting [6], the “Mean Tumor Vol. Change” value is 221 mm^3 and the Regression entry was “None”. Further, the “activity in the 20-day tumor growth inhibition assay” value (metformin monotherapy at 192.3 mg/kg) is “did not appear active”. Moreover, the T/C (mouse, in vivo) was 69% (ns).

The record behind these values is patent publication US20120059005A1, “COMBINATION OF (A) A PHOSPHOINOSITIDE 3-KINASE INHIBITOR AND (B) AN ANTIDIABETIC COMPOUND FOR USE IN THE TREATMENT OF PROLIFERATIVE DISEASES” (NOVARTIS AG, priority 2009, published 2012).
